Data as given in patent US10202368B2, “CXCR7 receptor modulators” (IDORSIA PHARMACEUTICALS LTD, priority 2014, dated 2019).

The compounds below were run against CXCR7 (Homo sapiens (Human), UniProt P25106) (assay: PathHunter CHO-K1 CXCR7 β-arrestin assay (agonistic activity)). Details: β-arrestin recruitment in PathHunter CHO-K1 CXCR7 β-arrestin cells, 90 minutes at 37° C., geometric mean values.
Format: cell-based
Experimental: The CXCI12 receptor and CXCR7 agonistic activities of the compounds of formula (I) are determined in accordance with the following experimental method.
The assay is using the PathHunter™ CHO-K1 CXCR7 β-arrestin cell line from DiscoverX. The system is based on the Enzyme Fragment Complementation Technology. Two complementing fragments of the β-galactosidase enzyme are expressed within stably transfected cells. The larger portion of β-gal, termed EA for Enzyme Acceptor, is fused to the C-terminus of b-arrestin 2. The smaller fragment, termed ProLink™ tag, is fused to CXCR7 at the C-terminus. Upon activation, b-arrestin is recruited which forces the interaction of ProLink and EA, allowing complementation of the two fragments of b-gal and the formation of a functional enzyme which is capable of hydrolysing the substrate and generating a chemiluminescent signal.
CHO-K1 CXCR7 β-arrestin cells are detached from culture dishes with a cell dissociation buffer (Invitrogen, #13151-014) and collected in growing medium (F12 HAMS 90% (v/v)/FCS 10% (v/v), Penicillin/streptomycin 1% (v/v)). 5000 cells per well (in 20 μl) are seeded in a 384 well plate (white-walled, clear bottom; BD Falcon #353274). The plate is incubated at 37° C./5% CO2 for 24 hours. Medium is then replaced by 20 μl OPTIMEM (Invitrogen #31985) for 3 to 4 hours. Test compounds are dissolved at 10 mM in DMSO and serially diluted in DMSO to 200× of the final concentration for dose response curves. Compounds are then diluted 1:33.3 in HBSS1X. 5 μl/well of HBSS1X/20 mM HEPES/0.2% BSA are added to the assay plate followed by addition of 5 μl/well of diluted compounds. CXCL12 (Peprotech #300-28A) may be used as a reference agonist. The plate is incubated for 90 minutes at 37° C. 12 μl of detection reagent (Path Hunter Detection Kit, DiscoveRx, #93-0001) is transferred to the assay plate and to the plate is incubated for 1 hour at room temperature. Luminescent signal is read in a microplate reader (FLUOstar Optima, bmg). The calculated EC50 values may fluctuate depending on the daily cellular assay performance. Fluctuations of this kind are known to those skilled in the art. Average EC50 values from several measurements are given as geometric mean values.

CXCR7, sequence (P25106 whole entry): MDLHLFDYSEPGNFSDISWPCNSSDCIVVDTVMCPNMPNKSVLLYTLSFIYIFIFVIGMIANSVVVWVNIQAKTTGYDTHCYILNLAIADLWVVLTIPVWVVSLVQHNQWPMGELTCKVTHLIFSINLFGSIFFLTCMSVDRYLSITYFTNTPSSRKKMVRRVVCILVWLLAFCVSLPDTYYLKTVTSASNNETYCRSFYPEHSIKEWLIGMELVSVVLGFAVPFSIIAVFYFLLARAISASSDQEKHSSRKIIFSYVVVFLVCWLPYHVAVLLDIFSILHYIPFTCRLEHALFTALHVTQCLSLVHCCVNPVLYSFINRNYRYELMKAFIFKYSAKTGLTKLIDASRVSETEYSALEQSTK
CXCR7, sequence (P32121 whole entry partner): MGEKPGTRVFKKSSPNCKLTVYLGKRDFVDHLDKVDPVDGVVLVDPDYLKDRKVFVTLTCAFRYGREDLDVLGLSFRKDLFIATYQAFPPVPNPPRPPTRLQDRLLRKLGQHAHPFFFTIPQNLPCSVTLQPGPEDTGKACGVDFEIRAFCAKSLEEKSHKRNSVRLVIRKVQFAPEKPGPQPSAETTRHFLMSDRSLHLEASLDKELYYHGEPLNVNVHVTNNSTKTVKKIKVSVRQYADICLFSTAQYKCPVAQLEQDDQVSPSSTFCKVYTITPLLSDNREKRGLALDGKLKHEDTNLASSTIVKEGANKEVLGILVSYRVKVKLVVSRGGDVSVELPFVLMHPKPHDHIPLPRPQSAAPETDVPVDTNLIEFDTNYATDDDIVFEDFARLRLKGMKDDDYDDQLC

Going from CN(C)CCN(Cc1ccccc1C(F)(F)F)C(=O)CNc1cccc2c1CCN(C(=O)C(F)(F)F)CC2 [Example 26, N-(2-Dimethylamino-ethyl)-2-[3-(2,2,2-trifluoro-acetyl)-2,3,4,5-tetrahydro-1H-benzo[d]azepin-6-ylamino]-N-(2-trifluoromethyl-benzyl)-acetamide] to CN(C)CCN(Cc1ccccc1C(F)(F)F)C(=O)CNc1cccc2c1CCN(CC1CC1)CC2 [Example 27, 2-(3-Cyclopropylmethyl-2,3,4,5-tetrahydro-1H-benzo[d]azepin-6-ylamino)-N-(2-dimethylamino-ethyl)-N-(2-trifluoromethyl-benzyl)-acetamide], the EC50 falls from 4 nM to 2 nM (2-fold).

Going from CN(C)CCN(Cc1ccccc1C(F)(F)F)C(=O)CNc1cccc2c1CCCN(CC1CC1)C2 [Example 28, 2-(2-Cyclopropylmethyl-2,3,4,5-tetrahydro-1H-benzo[c]azepin-6-ylamino)-N-(2-dimethylamino-ethyl)-N-(2-trifluoromethyl-benzyl)-acetamide] to CN(C)CCN(Cc1ccccc1C(F)(F)F)C(=O)CNc1cccc2c1N(C)CCN(CC1CC1)C2 [Example 49, 2-(4-Cyclopropylmethyl-1-methyl-2,3,4,5-tetrahydro-1H-benzo[e][1,4]diazepin-9-ylamino)-N-(2-dimethylamino-ethyl)-N-(2-trifluoromethyl-benzyl)-acetamide], the EC50 falls from 3 nM to 2 nM (1.5-fold).

First: CC(C)(C)NCCN(Cc1ccccc1C(F)(F)F)C(=O)CNc1cccc2c1C(=O)N(CC1CC1)CCO2 [Example 29, N-(2-tert-Butylamino-ethyl)-2-(4-cyclopropylmethyl-5-oxo-2,3,4,5-tetrahydro-benzo[f][1,4]oxazepin-6-ylamino)-N-(2-trifluoromethyl-benzyl)-acetamide]
Second: CNCCN(Cc1ccccc1C(F)(F)F)C(=O)CNc1cccc2c1C(=O)N(CC1CC1)CCO2 [Example 36, 2-(4-Cyclopropylmethyl-5-oxo-2,3,4,5-tetrahydro-benzo[f][1,4]oxazepin-6-ylamino)-N-(2-methylamino-ethyl)-N-(2-trifluoromethyl-benzyl)-acetamide]
The EC50 of the first is 4-fold lower: 3 nM for the first, 12 nM for the second. The first is the more potent here.

First: CN(C)CCN(Cc1cccc(Cl)c1Cl)C(=O)CNc1cccc2c1C(=O)N(CC1CC1)CCO2 [Example 30, 2-(4-Cyclopropylmethyl-5-oxo-2,3,4,5-tetrahydro-benzo[f][1,4]oxazepin-6-ylamino)-N-(2,3-dichloro-benzyl)-N-(2-dimethylamino-ethyl)-acetamide]
Second: CN(C)CCN(Cc1c(Cl)cccc1Cl)C(=O)CNc1cccc2c1C(=O)N(CC1CC1)CCO2 [Example 31, 2-(4-Cyclopropylmethyl-5-oxo-2,3,4,5-tetrahydro-benzo[f][1,4]oxazepin-6-ylamino)-N-(2,6-dichloro-benzyl)-N-(2-dimethylamino-ethyl)-acetamide]
The EC50 of the first is 3.5-fold lower: 7.8 nM for the first, 27 nM for the second. The first is the more potent here.

Compared with CN(C)CCN(Cc1ccccc1Cl)C(=O)CNc1cccc2c1C(=O)N(CC1CC1)CCO2 [Example 32, N-(2-Chloro-benzyl)-2-(4-cyclopropylmethyl-5-oxo-2,3,4,5-tetrahydro-benzo[f][1,4]oxazepin-6-ylamino)-N-(2-dimethylamino-ethyl)-acetamide], CN(C)CCN(Cc1ccccc1C(F)(F)F)C(=O)CNc1cccc2c1C(=O)N(CC1CC1)CCO2 [Example 38, 2-(4-Cyclopropylmethyl-5-oxo-2,3,4,5-tetrahydro-benzo[f][1,4]oxazepin-6-ylamino)-N-(2-dimethylamino-ethyl)-N-(2-trifluoromethyl-benzyl)-acetamide] is 3.8-fold lower in EC50: 15 nM for the first, 4 nM for the second.

First: Cc1cccc(CN(CCN(C)C)C(=O)CNc2cccc3c2C(=O)N(CC2CC2)CCO3)n1 [Example 33, 2-(4-Cyclopropylmethyl-5-oxo-2,3,4,5-tetrahydro-benzo[f][1,4]oxazepin-6-ylamino)-N-(2-dimethylamino-ethyl)-N-(6-methyl-pyridin-2-ylmethyl)-acetamide]
Second: CN(CCN(Cc1ccccc1C(F)(F)F)C(=O)CNc1cccc2c1C(=O)N(CC1CC1)CCO2)C(=O)OC(C)(C)C [Example 37, {2-[[2-(4-Cyclopropylmethyl-5-oxo-2,3,4,5-tetrahydro-benzo[f][1,4]oxazepin-6-ylamino)-acetyl]-(2-trifluoromethyl-benzyl)-amino]-ethyl}-methyl-carbamic acid tert-butyl ester]
The EC50 of the first is 17-fold lower: 24 nM for the first, 410 nM for the second. The first is the more potent here.

CC(C)NCCN(Cc1ccccc1C(F)(F)F)C(=O)CNc1cccc2c1C(=O)N(CC1CC1)CCO2 [Example 34, 2-(4-Cyclopropylmethyl-5-oxo-2,3,4,5-tetrahydro-benzo[f][1,4]oxazepin-6-ylamino)-N-(2-isopropylamino-ethyl)-N-(2-trifluoromethyl-benzyl)-acetamide] and CC(C)NCCN(Cc1ccccc1C(F)(F)F)C(=O)CNc1cccc2c1N(C)CCN(CC1CC1)C2=O [Example 46, 2-(4-Cyclopropylmethyl-1-methyl-5-oxo-2,3,4,5-tetrahydro-1H-benzo[e][1,4]diazepin-9-ylamino)-N-(2-isopropylamino-ethyl)-N-(2-trifluoromethyl-benzyl)-acetamide] are the same in EC50: 5 nM for the first, 5 nM for the second.

Going from CC(C)N(CCN(Cc1ccccc1C(F)(F)F)C(=O)CNc1cccc2c1C(=O)N(CC1CC1)CCO2)C(=O)OC(C)(C)C [Example 35, {2-[[2-(4-Cyclopropylmethyl-5-oxo-2,3,4,5-tetrahydro-benzo[f][1,4]oxazepin-6-ylamino)-acetyl]-(2-trifluoromethyl-benzyl)-amino]-ethyl}-isopropyl-carbamic acid tert-butyl ester] to CN1CCN(CC2CC2)C(=O)c2cccc(NCC(=O)N(CCNC(C)(C)C)Cc3ccccc3C(F)(F)F)c21 [Example 43, N-(2-tert-Butylamino-ethyl)-2-(4-cyclopropylmethyl-1-methyl-5-oxo-2,3,4,5-tetrahydro-1H-benzo[e][1,4]diazepin-9-ylamino)-N-(2-trifluoromethyl-benzyl)-acetamide], the EC50 falls from 420 nM to 4 nM (100-fold).

Going from CCN1CCOc2c(NCC(=O)N(CCN(C)C)Cc3ncccc3C)cccc2C1=O [Example 39, N-(2-Dimethylamino-ethyl)-2-(4-ethyl-5-oxo-2,3,4,5-tetrahydro-benzo[f][1,4]oxazepin-9-ylamino)-N-(3-methyl-pyridin-2-ylmethyl)-acetamide] to CCN1CCOc2c(NCC(=O)N(CCN(C)C)Cc3ccccc3C(F)(F)F)cccc2C1=O [Example 41, N-(2-Dimethylamino-ethyl)-2-(4-ethyl-5-oxo-2,3,4,5-tetrahydro-benzo[f][1,4]oxazepin-9-ylamino)-N-(2-trifluoromethyl-benzyl)-acetamide], the EC50 falls from 400 nM to 22 nM (18-fold). The second is the more potent here.

CCN1CCOc2c(NCC(=O)N(CCNC(C)(C)C)Cc3ccccc3C(F)(F)F)cccc2C1=O [Example 40, N-(2-tert-Butylamino-ethyl)-2-(4-ethyl-5-oxo-2,3,4,5-tetrahydro-benzo[f][1,4]oxazepin-9-ylamino)-N-(2-trifluoromethyl-benzyl)-acetamide] and CN(C)CCN(Cc1ccccc1C(F)(F)F)C(=O)CNc1cccc2c1N(C)CCN(CC1CC1)C2=O [Example 42, 2-(4-Cyclopropylmethyl-1-methyl-5-oxo-2,3,4,5-tetrahydro-1H-benzo[e][1,4]diazepin-9-ylamino)-N-(2-dimethylamino-ethyl)-N-(2-trifluoromethyl-benzyl)-acetamide] are the same in EC50: 7 nM for the first, 7 nM for the second.

Going from Cc1cccnc1CN(CCN(C)C)C(=O)CNc1cccc2c1N(C)CCN(CC1CC1)C2=O [Example 44, 2-(4-Cyclopropylmethyl-1-methyl-5-oxo-2,3,4,5-tetrahydro-1H-benzo[e][1,4]diazepin-9-ylamino)-N-(2-dimethylamino-ethyl)-N-(3-methyl-pyridin-2-ylmethyl)-acetamide] to CN(C)CCN(Cc1ncccc1Cl)C(=O)CNc1cccc2c1N(C)CCN(CC1CC1)C2=O [Example 45, N-(3-Chloro-pyridin-2-ylmethyl)-2-(4-cyclopropylmethyl-1-methyl-5-oxo-2,3,4,5-tetrahydro-1H-benzo[e][1,4]diazepin-9-ylamino)-N-(2-dimethylamino-ethyl)-acetamide], the EC50 falls from 130 nM to 50 nM (2.6-fold).

Going from CCN1CCN(CC)c2c(NCC(=O)N(CCN3CCOCC3)Cc3ncccc3C(F)(F)F)cccc2C1=O [Example 47, 2-(1,4-Diethyl-5-oxo-2,3,4,5-tetrahydro-1H-benzo[e][1,4]diazepin-9-ylamino)-N-(2-morpholin-4-yl-ethyl)-N-(3-trifluoromethyl-pyridin-2-ylmethyl)-acetamide] to CCN1CCN(CC)c2c(NCC(=O)N(CCN3CCCC3)Cc3ncccc3C(F)(F)F)cccc2C1=O [Example 48, 2-(1,4-Diethyl-5-oxo-2,3,4,5-tetrahydro-1H-benzo[e][1,4]diazepin-9-ylamino)-N-(2-pyrrolidin-1-yl-ethyl)-N-(3-trifluoromethyl-pyridin-2-ylmethyl)-acetamide], the EC50 falls from 430 nM to 47 nM (9.1-fold). The second is the more potent here.
